From patent US6733777B2, “Cationic reagents of transfection” (Qiagen GmbH, priority 1996, dated 2004)
Read-outs that look alike come from different tables or passages of the source. Marks after values point to notes of the source that are not given here.

Columns and labels:
[1] = system: HeLaS3 cells; test: Transfection of HeLaS3 cells with pCMVβ, β-Gal activity assay (cytofectins having three ammonium groups); assay type: cell-based; conditions: liposome with DOPE, 0.5 μg pCMVβ
Protocol: (§1) N,N′,N″-trialkyl-N,N,N′,N″,N″-pentamethyl-bis-(2-ammonioethyl)ammoniumbromide Liposomes comprising compound (3) [synthesis according to Example 1B] and DOPE were prepared at 60° C., using DOPE without sonication.
(§2) Cells were incubated for 48 hours at 37° C., 5% CO2 and then lysed.
(§3) The results below (Table 7) indicate the optimal transfection efficiency of the reporter plasmid pCMVβ using the above-mentioned liposomes as a percentage of the highest transfection efficiency obtained by Lipofectamine. R indicates the number of carbons in the alkyl chain. Concentration of DOPE in each liposome may be calculated by multiply the X(DOPE) value by […].

[2] = system: COS7 cells; test: Transfection of COS7 cells with pCMVβ, β-Gal activity assay (cytofectins having three ammonium groups); assay type: cell-based; conditions: liposome with DOPE, 0.5 μg pCMVβ
Protocol: as §1, §2, §3

[3] = system: HeLaS3 cells; test: Transfection of HeLaS3 cells with pCMVβ, β-Gal activity assay (variation of counter ion); assay type: cell-based; conditions: 10-2-10 cytofectin with the given counter ion; for Results (%) (optimal transfection efficiency as percentage of the highest efficiency obtained by Lipofectamine): liposome with DOPE, 0.5 μg pCMVβ; for ranking of transfection efficiency among the counter ions (in words) / transfection efficiency compared with Lipofectamine (in words): liposomes with DOPE
Protocol: Liposomes were used to transfect HeLaS3 cells in vitro with the reporter plasmid pCMVβ (Clontech). […] Cells were incubated for 48 hours at 37° C., 5% CO2 and then lysed.
In similar studies in HeLaS3 cells, the same vector was transfected with liposomes comprising bromide counter ions and the cytofectin, 10-2-10 Ethandiyl-1,2-bis(decyl dimethylammonium).

[4] = system: Huh7 cells; conditions: Huh7, liposome with DOPE, 0.5 μg pCMVβ
Protocol: The resulting liposomes were used to transfect Huh7 cells in vitro with the reporter plasmid pCMVβ (Clontech). Transfection efficiencies, as obtained by OD measurements after cell-lysis and β-Gal activity assay, were compared to efficiencies obtained in parallel with a commercially available liposome-preparation (Lipofectamine, Gibco LTI) and given as percentage of Lipofectamine efficiency. For each transfection, 0.5 μg of pCMVβ (isolated with EndoFree, QIAGEN) was used per well of a 96 well plate. The DNA was diluted to 50 μl with DMEM medium (Gibco LTI) and combined with 1, 2, 3 and 4 μl of the liposome preparations subsequently diluted to 50 μl with DMEM medium. DNA and liposome solutions were mixed and applied to the cells for 6 hours at 37° C., 5% CO2. Afterwards, medium was changed to DMEM containing 10% fetal calf serum. Cells were lysed after 48 h incubation at 37° C., 5% CO2. Twofold determinations each were performed. The values were averaged and the highest efficiency (optimum) within a row was given as percentage value of the highest efficiency (optimum) obtained with Lipofectamine.

[5] = X(DOPE) 0.5, without sonication
[6] = X(DOPE) 0.6, without sonication
[7] = X(DOPE) 0.7, without sonication
[8] = X(DOPE) 0.8, without sonication
[9] = X(DOPE) 0.50, without sonication
[10] = X(DOPE) 0.60, without sonication
[11] = X(DOPE) 0.70, without sonication
[12] = X(DOPE) 0.80, without sonication

| Molecule | Results HeLaS3 (%) (optimal transfection efficiency as percentage of the highest efficiency obtained by Lipofectamine) [1, 5] | Results HeLaS3 (%) (optimal transfection efficiency as percentage of the highest efficiency obtained by Lipofectamine) [1, 6] | Results HeLaS3 (%) (optimal transfection efficiency as percentage of the highest efficiency obtained by Lipofectamine) [1, 7] | Results HeLaS3 (%) (optimal transfection efficiency as percentage of the highest efficiency obtained by Lipofectamine) [1, 8] | Results COS7 (%) (optimal transfection efficiency as percentage of the highest efficiency obtained by Lipofectamine) [2, 5] | Results COS7 (%) (optimal transfection efficiency as percentage of the highest efficiency obtained by Lipofectamine) [2, 6] | Results COS7 (%) (optimal transfection efficiency as percentage of the highest efficiency obtained by Lipofectamine) [2, 7] | Results COS7 (%) (optimal transfection efficiency as percentage of the highest efficiency obtained by Lipofectamine) [2, 8] | Results (%) (optimal transfection efficiency as percentage of the highest efficiency obtained by Lipofectamine) [3, 9] | Results (%) (optimal transfection efficiency as percentage of the highest efficiency obtained by Lipofectamine) [3, 10] | Results (%) (optimal transfection efficiency as percentage of the highest efficiency obtained by Lipofectamine) [3, 11] | Results (%) (optimal transfection efficiency as percentage of the highest efficiency obtained by Lipofectamine) [3, 12] | ranking of transfection efficiency among the counter ions (in words) [3] | transfection efficiency compared with Lipofectamine (in words) [3] | Result (%) (transfection efficiency as percentage of Lipofectamine efficiency) [4, 9] | Result (%) (transfection efficiency as percentage of Lipofectamine efficiency) [4, 10] | Result (%) (transfection efficiency as percentage of Lipofectamine efficiency) [4, 11] | Result (%) (transfection efficiency as percentage of Lipofectamine efficiency) [4, 12] |
| --- | --- | --- | --- | --- | --- | --- | --- | --- | --- | --- | --- | --- | --- | --- | --- | --- | --- | --- |
| CCCCCCCCCC[N+](C)(C)CC[N+](C)(CCCCCCCCCC)CC[N+](C)(C)CCCCCCCCCC.[Br-].[Br-].[Br-] [R = 10, N,N′,N″-tridecyl-N,N,N′,N″,N″-pentamethyl-bis-(2-ammonioethyl)-ammoniumbromide] | 231 | 222 | 52 | 47 | 11 | 9 | 16 | 20 | – | – | – | – | – | – | – | – | – | – |
| CCCCCCCCCCCC[N+](C)(C)CC[N+](C)(CCCCCCCCCCCC)CC[N+](C)(C)CCCCCCCCCCCC.[Br-].[Br-].[Br-] [R = 12, N,N′,N″-tridodecyl-N,N,N′,N″,N″-pentamethyl-bis-(2-ammonioethyl)-ammoniumbromide] | 0 | 9 | 17 | 63 | 3 | 5 | 8 | 29 | – | – | – | – | – | – | – | – | – | – |
| CCCCCCCCCCCCCC[N+](C)(C)CC[N+](C)(CCCCCCCCCCCCCC)CC[N+](C)(C)CCCCCCCCCCCCCC.[Br-].[Br-].[Br-] [R = 14, N,N′,N″-tritetradecyl-N,N,N′,N″,N″-pentamethyl-bis-(2-ammonioethyl) ammoniumbromide] | 7 | 7 | 9 | 35 | 8 | 9 | 12 | 58 | – | – | – | – | – | – | – | – | – | – |
| CCCCCCCCCCCCCCCC[N+](C)(C)CC[N+](C)(CCCCCCCCCCCCCCCC)CC[N+](C)(C)CCCCCCCCCCCCCCCC.[Br-].[Br-].[Br-] [R = 16, N,N′,N″-trihexadecyl-N,N,N′,N″,N″-pentamethyl-bis-(2-ammonioethyl)-ammoniumbromide] | 31 | 39 | 70 | 75 | 18 | 16 | 44 | 38 | – | – | – | – | – | – | – | – | – | – |
| CCCCCCCCCCCCCCCCCC[N+](C)(C)CC[N+](C)(CCCCCCCCCCCCCCCCCC)CC[N+](C)(C)CCCCCCCCCCCCCCCCCC.[Br-].[Br-].[Br-] [R = 18, N,N′,N″-trioctadcyl-N,N,N′,N″,N″-pentamethyl-bis-(2-ammonioethyl)-ammoniumbromide] | 65 | 61 | 80 | 61 | 20 | 34 | 79 | 93 | – | – | – | – | – | – | – | – | – | – |
| CCCCCCCCCC[N+](C)(C)CC[N+](C)(C)CCCCCCCCCC.O=P([O-])(O)O.O=P([O-])(O)O [dihydrogenphosphate, Ethanediyl-1,2-bis(decyldimethylammonium) dihydrogenphosphate] | – | – | – | – | – | – | – | – | 1966% | > 3230* % | 580 | 615 | highest transfection efficiencies | higher transfection efficiency values than transfections with Lipofectamine | – | – | – | – |
| CCCCCCCCCC[N+](C)(C)CC[N+](C)(C)CCCCCCCCCC.O=C([O-])C(=O)[O-] [oxalate, Ethanediyl-1,2-bis(decyldimethylammonium) oxalate] | – | – | – | – | – | – | – | – | 275% | 0% | 0 | 0 | – | – | – | – | – | – |
| CCCCCCCCCC[N+](C)(C)CC[N+](C)(C)CCCCCCCCCC.O=S(=O)([O-])[O-] [sulfate, ethanediyl-1,2-bis(dimethyldecylammonium sulfate)] | – | – | – | – | – | – | – | – | 879% | 927% | 265 | 1201 | – | higher transfection efficiency values than transfections with Lipofectamine | – | – | – | – |
| Ethanediyl-1,2-bis(decyl dimethylammonium) iodide | – | – | – | – | – | – | – | – | > 3230* % | > 3230* % | 686 | 457 | highest transfection efficiencies | higher transfection efficiency values than transfections with Lipofectamine | – | – | – | – |
| Ethanediyl-1,2-bis(decyl dimethylammonium) thiosulfate | – | – | – | – | – | – | – | – | 1552% | 1915% | 605 | 844 | – | higher transfection efficiency values than transfections with Lipofectamine | – | – | – | – |
| Ethanediyl-1,2-bis(dodecyl dimethylammonium bromide) [12-2-12] | – | – | – | – | – | – | – | – | – | – | – | – | – | – | 70 | 127 | 138 | 89 |
